This is an account of results in patent US11274106B2, “Topoisomerase inhibitors with antibacterial and anticancer activity” (THE BOARD OF TRUSTEES OF THE UNIVERSITY OF ILLINOIS, priority 2017, dated 2022).

Entries after “also recorded” stand apart in the source; their conditions may differ.

Assay [1] concerns the target Top2α (Homo sapiens, UniProt P11388). Put plainly: Top2α kDNA decatenation assay. Type of assay: biochemical. Conditions: gel electrophoresis, FIG. 3a. An excerpt: (§1) FIG. 3. DNM derivatives are dual Top1/Top2 inhibitors with different modes of inhibition. (a) Inhibition of decatenating ability of Top2α with increasing concentrations of ETP, 6DNM-NH3, 6DNM-Pyr, and Ph-6DNM-NH3. K, kinetoplast DNA; OC, open circular; R, relaxed. (b) Inhibition of relaxing ability of Top1 with increasing concentrations of CPT, 6DNM-NH3, 6DNM-Pyr, and Ph-6DNM-NH3. R, relaxed; S, supercoiled. (c) Detection of Top2a-DNA using the ICE Assay. Genomic DNA ([…]) of H460 cells treated with drugs (50 μM, 30 min) was applied to nitrocellulose membrane and immunoblotted for Top2a. (d) Detection of Top1-DNA adducts using ICE Assay. Same procedure as (c) using 1 μg of DNA. (e) Inhibition of ETP-induced poisoning of Top2a. H460 cells treated with indicated concentrations of inhibitor for 30 min prior to treatment with ETP (50 μM). Detection of Top2α as in (c).
FIG. 9. Mechanism of action studies: Topoisomerases form transient covalent complexes with DNA to modify DNA topology. Ph6DNM-NH3 and 6DNM-NH3 inhibit bacterial DNA gyrase and human topoisomerase II in vitro.
The ability of Ph-6DNM-NH3, 6DNM-NH3, and 6DNM-Pyr to inhibit Top2α was assessed using a decatenation assay. In this assay, Top2α is incubated with kinetoplast DNA (kDNA), a large network of catenated minicircles and maxicircles of DNA. As Top2α decatenates the kDNA, it releases supercoiled and relaxed DNA minicircles that are easily separated from the kDNA by gel electrophoresis.

Assay [2] deals with panel of cancer cells. The experiment in a line: Average over panel of 10 cancer cell lines. Type of assay: cell-based. The settings on record: 72 hour, read-out: Average (mean) IC50 over the cell line panel. The text has this:
(§2) Topoisomerase inhibitors such as DOX are used as single agent and in combination therapy to treat a wide-range of cancer types.

Assay [3] relates to HL-60. The experiment in a line: Cell viability Alamar Blue assay, HL-60. Type of assay: cell-based. The settings on record: Homo sapiens, HL-60, 72 h, Leukemia, mean ± SEM.
Excerpt: as §2
Background: The colour change of resazurin is a common sign of viable cells or microbes.

For assay [4], the target named is T1, Top1 (Homo sapiens, UniProt P11387).
T1 sequence (P11387 1-765): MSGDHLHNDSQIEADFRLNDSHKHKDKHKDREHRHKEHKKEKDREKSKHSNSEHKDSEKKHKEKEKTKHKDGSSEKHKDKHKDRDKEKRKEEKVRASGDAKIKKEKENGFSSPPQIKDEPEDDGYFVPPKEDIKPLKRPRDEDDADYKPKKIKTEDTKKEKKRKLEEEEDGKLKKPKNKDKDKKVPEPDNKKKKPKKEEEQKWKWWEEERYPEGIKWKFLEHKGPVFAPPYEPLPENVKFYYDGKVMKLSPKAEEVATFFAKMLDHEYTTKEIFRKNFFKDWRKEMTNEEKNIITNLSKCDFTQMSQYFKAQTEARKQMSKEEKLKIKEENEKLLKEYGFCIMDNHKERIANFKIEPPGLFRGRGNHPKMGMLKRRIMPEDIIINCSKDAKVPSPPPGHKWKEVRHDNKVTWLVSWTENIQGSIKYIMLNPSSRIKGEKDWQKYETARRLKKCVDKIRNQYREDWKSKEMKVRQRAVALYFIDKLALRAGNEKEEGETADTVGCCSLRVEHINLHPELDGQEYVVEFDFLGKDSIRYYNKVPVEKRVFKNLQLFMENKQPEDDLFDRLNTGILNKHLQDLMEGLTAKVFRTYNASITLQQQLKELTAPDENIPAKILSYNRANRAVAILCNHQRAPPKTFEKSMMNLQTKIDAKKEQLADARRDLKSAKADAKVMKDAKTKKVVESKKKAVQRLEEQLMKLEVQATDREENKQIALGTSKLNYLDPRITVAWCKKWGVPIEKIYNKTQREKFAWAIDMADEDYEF
The experiment in a line: Top1 DNA relaxation assay (pBR322). It is filed as biochemical. Conditions: for Inhibition of Top1 relaxation: supercoiled pBR322, FIG. 3b.
Excerpt: as §1
To further investigate any mechanistic differences between these structurally related DNM analogues they were also evaluated against the other clinically-targeted mammalian topoisomerase, Top1, using a DNA relaxation assay in which purified Top1 relaxes supercoiled pBR322 and the two forms are separated by agarose gel electrophoresis.

For assay [5], the target named is T1, Top1. Put plainly: Top1 degradation by Western blot, MDA-MB-231. Conditions: 4, and 6 hours, then 30-minute drug-free media. It is filed as cell-based. Also noted: dose or concentration left out as unconfirmed. Here is the method:
FIG. 4. Level of Top1-degradation predicts cell line sensitivity. (a) Cells treated with 25 μM of compound for indicated times followed by a 30 minute incubation with drug-free media. Cells were lysed with RIPA and Top1 levels assessed by Western Blot. (b) Degradation of Top1 results in a right-ward shift in the dose-response curve. Effect is most pronounced in Top1-poisons (Ph-6DNM-NH3, CPT) than Top1 catalytic inhibitor (6DNM-Pyr). Cell death measured by SRB assay after 72 hour of compound exposure (n≥3 biological replicates, error bars show SEM).
This difference in mechanism of action between Ph-6DNM-NH3 and 6DNM-Pyr may provide an explanation of the differences in cell line sensitivities between the different DNM derivatives. […] This downregulation serves as a resistance mechanism and the level of Top1 degradation is correlated with reduced sensitivity to CPT. To determine if a similar mechanism is responsible for the reduced sensitivity to Ph-6DNM-NH3 and its derivatives in certain cell lines, the effects of Ph-6DNM-NH3 and 6DNM-Pyr were compared to that of CPT in […] and BT-474, two cancer cell lines known to be deficient and proficient in Top1 degradation, respectively. Cells were treated with 50 μM Ph-6DNM-NH3, 6DNM-Pyr, or CPT for 2, 4, and 6 hours. Following a 30-minute incubation with drug-free media to allow for the reversal of any Top1cc formed, cells were lysed and Top1 concentrations assessed by Western blot (FIG. 4a).

The subject of assay [6] is H460. The experiment in a line: Antiproliferative SRB assay, H460. Type of assay: cell-based. Conditions: Homo sapiens, NCI-H460, 72 h, Lung cancer, mean ± SEM.
Excerpt: as §2
Background: Sulforhodamine B stains cellular protein and so reports cell mass.

Assay [7] concerns HCT-116. Put plainly: Antiproliferative SRB assay, HCT-116. It is filed as cell-based. The settings on record: Homo sapiens, HCT-116, 72 h, Colon cancer, mean ± SEM.
Excerpt: as §2

Assay [8] concerns IMR32. Put plainly: Antiproliferative SRB assay, IMR32. Type of assay: cell-based. The settings on record: Homo sapiens, IMR-32, 72 h, Neuroblastoma, mean ± SEM.
Excerpt: as §2

In assay [9] the test system is BT-474. The experiment in a line: Antiproliferative SRB assay, BT-474. Conditions: for IC50: Homo sapiens, BT-474, 72 h, Breast cancer, mean ± SEM. Type of assay: cell-based.
Excerpt: as §2

Assay [10] concerns HOS. Put plainly: Antiproliferative SRB assay, HOS. It is filed as cell-based. Conditions: Homo sapiens, 72 h, Osteosarcoma, mean ± SEM.
Excerpt: as §2

Assay [11] relates to Jurkat. The experiment in a line: Cell viability Alamar Blue assay, Jurkat. Type of assay: cell-based. Conditions: Homo sapiens, 72 h, Leukemia, mean ± SEM.
Excerpt: as §2

Sequence of Top2α (P11388 whole entry): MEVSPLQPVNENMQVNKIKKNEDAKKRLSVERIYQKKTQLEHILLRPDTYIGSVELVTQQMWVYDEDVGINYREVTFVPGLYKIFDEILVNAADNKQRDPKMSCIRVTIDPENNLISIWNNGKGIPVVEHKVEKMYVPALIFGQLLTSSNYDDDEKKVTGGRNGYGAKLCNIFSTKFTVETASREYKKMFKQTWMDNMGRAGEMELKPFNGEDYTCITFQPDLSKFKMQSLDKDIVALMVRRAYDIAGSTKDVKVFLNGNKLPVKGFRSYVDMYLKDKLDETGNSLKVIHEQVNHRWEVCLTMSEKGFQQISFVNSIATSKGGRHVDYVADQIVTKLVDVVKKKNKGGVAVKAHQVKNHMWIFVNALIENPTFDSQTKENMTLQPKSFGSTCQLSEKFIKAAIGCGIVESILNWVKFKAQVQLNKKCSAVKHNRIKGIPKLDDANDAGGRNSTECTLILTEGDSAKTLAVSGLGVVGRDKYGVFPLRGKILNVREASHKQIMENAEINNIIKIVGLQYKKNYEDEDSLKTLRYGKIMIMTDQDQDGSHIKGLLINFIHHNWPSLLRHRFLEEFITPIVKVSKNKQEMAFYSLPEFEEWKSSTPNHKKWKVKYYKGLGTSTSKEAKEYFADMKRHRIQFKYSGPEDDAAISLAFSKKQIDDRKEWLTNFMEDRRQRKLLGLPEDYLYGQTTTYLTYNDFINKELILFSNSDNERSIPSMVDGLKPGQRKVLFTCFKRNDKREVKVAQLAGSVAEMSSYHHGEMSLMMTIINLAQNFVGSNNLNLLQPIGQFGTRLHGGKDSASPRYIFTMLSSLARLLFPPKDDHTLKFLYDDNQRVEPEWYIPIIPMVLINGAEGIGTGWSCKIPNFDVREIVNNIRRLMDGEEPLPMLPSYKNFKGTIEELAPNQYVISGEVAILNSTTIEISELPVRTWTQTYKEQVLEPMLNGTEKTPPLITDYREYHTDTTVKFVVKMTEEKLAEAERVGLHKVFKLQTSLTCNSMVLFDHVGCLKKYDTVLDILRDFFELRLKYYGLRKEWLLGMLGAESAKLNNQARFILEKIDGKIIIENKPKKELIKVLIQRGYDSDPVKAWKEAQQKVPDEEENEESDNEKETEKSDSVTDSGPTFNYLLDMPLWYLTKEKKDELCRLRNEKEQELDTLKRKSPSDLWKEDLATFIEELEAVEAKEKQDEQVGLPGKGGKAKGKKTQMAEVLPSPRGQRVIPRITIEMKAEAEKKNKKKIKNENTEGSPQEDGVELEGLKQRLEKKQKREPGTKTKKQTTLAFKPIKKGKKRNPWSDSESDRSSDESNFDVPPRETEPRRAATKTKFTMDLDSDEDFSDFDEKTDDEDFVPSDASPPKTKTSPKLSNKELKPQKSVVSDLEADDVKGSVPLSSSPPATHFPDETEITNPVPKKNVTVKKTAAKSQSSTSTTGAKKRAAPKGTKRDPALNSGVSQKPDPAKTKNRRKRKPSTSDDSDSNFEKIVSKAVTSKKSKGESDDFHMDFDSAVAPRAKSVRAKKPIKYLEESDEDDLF

What is called IC50 is the concentration needed to halve the response being measured. `Cc1cc(=O)n2c3c(c4c(cc13)c1ccccc1c(=O)n4C)OCC2CN` (stereo not drawn) [Compound 15]: in assay [1] (listed as Ph-6DNM-NH3), the “Inhibition of decatenating function of Top2α” value is on record as “inhibit the decatenating function of Top2α in a dose-dependent manner; also recorded: the least active derivative in this in vitro assay”. In addition, the half-maximal inhibitory concentration (IC50) in assay [2] came out at 164 nM; in assay [3], 470 ± 90 nM; in assay [6] it was 12 ± 2 nM; in assay [7] it was 37 ± 13 nM; in [8], 8.6 ± 0.1 nM; in assay [9], 690 ± 50 nM. The half-inhibitory concentration (IC50) came to 17 ± 1 nM in [10] and 290 ± 30 nM in [11]. Also, the “Fold less potent Top1 inhibitor than 6DNM-Pyr” value in assay [4] (DNA relaxation assay) was “more than 20 fold”. Moreover, the “Inhibition of Top1 relaxation” value in assay [4] was “approximately equipotent to the known Top1 inhibitor camptothecin”. In addition, in assay [5], the “Top1 levels by Western blot in MDA-MB-231” value is recorded as “minimal differences in Top1 relative to untreated cells”. Moreover, in assay [9] (FIG. 4b, 72 hour), the “Effectiveness in BT-474 after Top1 degradation” value was “similarly reduced, however to a lesser extent”.
With `Cc1cc(=O)n(C)c2c3c4c(cc12)c(C)cc(=O)n4C(CN1CCCC1)CO3` (stereo not drawn) [Compound 20], the “Inhibition of decatenating function of Top2α” value in assay [1] (listed as 6DNM-Pyr) is “inhibit the decatenating function of Top2α in a dose-dependent manner; also recorded: inhibiting Top2α function at lower concentrations than 6DNM-NH3”. For the same compound, the IC50 was determined as 25 nM in assay [2]; 48 ± 11 nM in assay [3]; 6.6 ± 0.5 nM in [6]; 9 ± 1 nM in assay [7]; 4.4 ± 0.3 nM in assay [8]; 91 ± 4 nM in [9]. Moreover, the IC50 in [10] is 16 ± 2 nM; in assay [11] it was 20 ± 6 nM. Moreover, the “Inhibition of Top1 relaxation” value in assay [4] was “inhibit relaxation at submicromolar concentrations”. Besides, the “Top1 levels by Western blot in MDA-MB-231” value in assay [5] is “minimal differences in Top1 relative to untreated cells”.
